Values of other authors in patent publication US20100151459A1, “MARKER FOR DETECTING THE PROPOSED EFFICACY OF TREATMENT” (priority 2007, published 2010).

Tests used:
[1] = system: acutely exacerbated schizophrenic inpatients; conditions: 18 mg/day, 3-week treatment
[2] = system: reserpinized (hypodopaminergic) rats

Row | Structure (SMILES) | percentage improvement in other subgrouped symptoms (negative, anxiety-depression, excitement and cognitive symptoms) ([1]; between the two genotype groups) | percentage improvement in total BPRS and positive symptoms ([1]; one or two A1 alleles (n=14) vs no A1 allele (n=11)) | locomotor activity [2]
1 | CNc1cc(OC)c(C(=O)NC2CCN(Cc3ccccc3)C2C)cc1Cl (stereo not drawn) [nemonapride] | similar | significantly higher percentage improvement | 
2 | O=C1CCc2ccc(OCCCCN3CCN(c4cccc(Cl)c4Cl)CC3)cc2N1 [aripiprazole] |  |  | does not increase locomotor activity
